In ChEMBL document CHEMBL2385073, “Synthesis and evaluation of cholecystokinin trimers: a multivalent approach to pancreatic cancer detection and treatment” (Bioorg Med Chem Lett, 2013):

How the values were obtained:
Format in all cases: cell-based
[1] = target: T1, Gastrin/cholecystokinin type B receptor (Homo sapiens, UniProt P32239); experiment: Displacement of Eu-DTPA-CCK8 from CCK2 receptor in HEK293 cells after 2 hrs by TRF assay
T1 sequence (P32239 whole entry): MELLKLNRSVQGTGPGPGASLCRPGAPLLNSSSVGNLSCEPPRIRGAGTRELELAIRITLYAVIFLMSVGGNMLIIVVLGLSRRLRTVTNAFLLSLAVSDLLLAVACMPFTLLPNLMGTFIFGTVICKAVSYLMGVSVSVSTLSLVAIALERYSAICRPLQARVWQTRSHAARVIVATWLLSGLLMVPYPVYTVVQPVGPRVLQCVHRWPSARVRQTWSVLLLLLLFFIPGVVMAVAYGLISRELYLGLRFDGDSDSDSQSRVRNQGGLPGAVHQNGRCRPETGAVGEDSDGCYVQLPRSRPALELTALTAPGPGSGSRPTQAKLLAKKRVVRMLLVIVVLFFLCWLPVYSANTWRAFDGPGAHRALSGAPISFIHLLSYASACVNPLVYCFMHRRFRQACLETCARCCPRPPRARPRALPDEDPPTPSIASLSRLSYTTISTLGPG

[2] = target: T2, Gastrin/cholecystokinin type B receptor (Homo sapiens) (UniProt P32239); experiment: Displacement of Eu-DTPA-CCK8 from CCK2 receptor in HEK293 cells after 2 hrs by TRF assay relative to CCK4
T2 sequence (whole entry): T1 sequence (P32239 whole entry)

Melanocortin receptor 4 = Melanocortin receptor 4 (Homo sapiens, UniProt P32245); experiment: Binding affinity to MC4R in HEK293 cells
Sequence of Melanocortin receptor 4 (P32245 whole entry): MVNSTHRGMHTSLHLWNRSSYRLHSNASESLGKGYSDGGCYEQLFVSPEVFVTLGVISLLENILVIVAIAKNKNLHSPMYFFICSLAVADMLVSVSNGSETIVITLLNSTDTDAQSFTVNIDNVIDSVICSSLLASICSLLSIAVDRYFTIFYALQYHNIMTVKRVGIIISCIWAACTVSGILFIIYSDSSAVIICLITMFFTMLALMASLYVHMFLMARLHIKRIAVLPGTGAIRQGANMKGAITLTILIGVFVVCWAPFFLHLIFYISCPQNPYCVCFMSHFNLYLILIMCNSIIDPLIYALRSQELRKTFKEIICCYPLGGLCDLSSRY

| Structure (SMILES) | IC50 [1] | fold change (FC) [2] | IC50 (Melanocortin receptor 4) |
| --- | --- | --- | --- |
| C#CCCC(=O)NCCCC[C@H](NC(C)=O)C(=O)N[C@@H](Cc1c[nH]c2ccccc12)C(=O)N(C)[C@@H](CCCC)C(=O)N[C@@H](CC(=O)O)C(=O)N[C@@H](Cc1ccccc1)C(=O)Nc1cn(CC(=O)NCC(=O)N2CCC[C@H]2C(=O)NCC(=O)NCCCC(CCCNC(=O)CNC(=O)[C@@H]2CCCN2C(=O)CNC(=O)Cn2cc(NC(=O)[C@H](Cc3ccccc3)NC(=O)[C@H](CC(=O)O)NC(=O)[C@H](CCCC)N(C)C(=O)[C@H](Cc3c[nH]c4ccccc34)NC(=O)[C@H](CCCCNC(=O)CCC#C)NC(C)=O)nn2)(NC(=O)CNC(=O)CNC(=O)[C@@H]2CCCN2C(=O)CNC(=O)Cn2cc(NC(=O)[C@H](Cc3ccccc3)NC(=O)[C@H](CC(=O)O)NC(=O)[C@H](CCCC)N(C)C(=O)[C@H](Cc3c[nH]c4ccccc34)NC(=O)[C@H](CCCCNC(=O)CCC#C)NC(C)=O)nn2)C(=O)NCCC(N)=O)nn1 | 6 nM | 2.5 | – |
| C#CCCC(=O)NCCCC[C@H](NC(C)=O)C(=O)N[C@@H](Cc1c[nH]c2ccccc12)C(=O)N(C)[C@@H](CCCC)C(=O)N[C@@H](CC(=O)O)C(=O)N[C@@H](Cc1ccccc1)C(=O)Nc1cn(CC(=O)NCCC(=O)NCCC(=O)NCCCC(CCCNC(=O)CCNC(=O)CCNC(=O)Cn2cc(NC(=O)[C@H](Cc3ccccc3)NC(=O)[C@H](CC(=O)O)NC(=O)[C@H](CCCC)N(C)C(=O)[C@H](Cc3c[nH]c4ccccc34)NC(=O)[C@H](CCCCNC(=O)CCC#C)NC(C)=O)nn2)(NC(=O)CNC(=O)CCNC(=O)CCNC(=O)Cn2cc(NC(=O)[C@H](Cc3ccccc3)NC(=O)[C@H](CC(=O)O)NC(=O)[C@H](CCCC)N(C)C(=O)[C@H](Cc3c[nH]c4ccccc34)NC(=O)[C@H](CCCCNC(=O)CCC#C)NC(C)=O)nn2)C(=O)NCCC(N)=O)nn1 | 8.5 nM | 2 | – |
| C#CCCC(=O)NCCCC[C@H](NC(C)=O)C(=O)N[C@@H](CO)C(=O)N[C@@H](CCCC)C(=O)N[C@@H](CCC(=O)O)C(=O)N[C@@H](Cc1cnc[nH]1)C(=O)N[C@H](Cc1ccccc1)C(=O)N[C@@H](CCCNC(=N)N)C(=O)N[C@@H](Cc1c[nH]c2ccccc12)C(=O)Nc1cn(CC(=O)NCCCC(CCCNC(=O)Cn2cc(NC(=O)[C@H](Cc3c[nH]c4ccccc34)NC(=O)[C@H](CCCNC(=N)N)NC(=O)[C@@H](Cc3ccccc3)NC(=O)[C@H](Cc3cnc[nH]3)NC(=O)[C@H](CCC(=O)O)NC(=O)[C@H](CCCC)NC(=O)[C@H](CO)NC(=O)[C@H](CCCCNC(=O)CCC#C)NC(C)=O)nn2)(NC(=O)CNC(=O)Cn2cc(NC(=O)[C@H](Cc3c[nH]c4ccccc34)NC(=O)[C@H](CCCNC(=N)N)NC(=O)[C@@H](Cc3ccccc3)NC(=O)[C@H](Cc3cnc[nH]3)NC(=O)[C@H](CCC(=O)O)NC(=O)[C@H](CCCC)NC(=O)[C@H](CO)NC(=O)[C@H](CCCCNC(=O)CCC#C)NC(C)=O)nn2)C(=O)NCCC(N)=O)nn1 (stereo not given in full) | – | – | 12 nM |

Further lines, results first:

| IC50 [1] | fold change (FC) [2] | IC50 (Melanocortin receptor 4) | Structure (SMILES) |
| --- | --- | --- | --- |
| 16 nM | – | – | C#CCCC(=O)NCCCC[C@H](NC(C)=O)C(=O)N[C@@H](Cc1c[nH]c2ccccc12)C(=O)N(C)[C@@H](CCCC)C(=O)N[C@@H](CC(=O)O)C(=O)N[C@@H](Cc1ccccc1)C(N)=O |
| 12 nM | 1.5 | – | C#CCCC(=O)NCCCC[C@H](NC(C)=O)C(=O)N[C@@H](Cc1c[nH]c2ccccc12)C(=O)N(C)[C@@H](CCCC)C(=O)N[C@@H](CC(=O)O)C(=O)N[C@@H](Cc1ccccc1)C(=O)Nc1cn(CC(=O)NCCCC(CCCNC(=O)Cn2cc(NC(=O)[C@H](Cc3ccccc3)NC(=O)[C@H](CC(=O)O)NC(=O)[C@H](CCCC)N(C)C(=O)[C@H](Cc3c[nH]c4ccccc34)NC(=O)[C@H](CCCCNC(=O)CCC#C)NC(C)=O)nn2)(NC(=O)CNC(=O)Cn2cc(NC(=O)[C@H](Cc3ccccc3)NC(=O)[C@H](CC(=O)O)NC(=O)[C@H](CCCC)N(C)C(=O)[C@H](Cc3c[nH]c4ccccc34)NC(=O)[C@H](CCCCNC(=O)CCC#C)NC(C)=O)nn2)C(=O)NCCC(N)=O)nn1 |
| 5.2 nM | 3 | – | C#CCCC(=O)NCCCC[C@H](NC(C)=O)C(=O)N[C@@H](Cc1c[nH]c2ccccc12)C(=O)N(C)[C@@H](CCCC)C(=O)N[C@@H](CC(=O)O)C(=O)N[C@@H](Cc1ccccc1)C(=O)Nc1cn(CC(=O)NCCC(=O)NCCCC(CCCNC(=O)CCNC(=O)Cn2cc(NC(=O)[C@H](Cc3ccccc3)NC(=O)[C@H](CC(=O)O)NC(=O)[C@H](CCCC)N(C)C(=O)[C@H](Cc3c[nH]c4ccccc34)NC(=O)[C@H](CCCCNC(=O)CCC#C)NC(C)=O)nn2)(NC(=O)CNC(=O)CCNC(=O)Cn2cc(NC(=O)[C@H](Cc3ccccc3)NC(=O)[C@H](CC(=O)O)NC(=O)[C@H](CCCC)N(C)C(=O)[C@H](Cc3c[nH]c4ccccc34)NC(=O)[C@H](CCCCNC(=O)CCC#C)NC(C)=O)nn2)C(=O)NCCC(N)=O)nn1 |
